Source: BindingDB's records for patent US20250289799 (Jiangsu Yahong Meditech Co., 2025)

Target: Ubiquitin carboxyl-terminal hydrolase 1/WD repeat-containing protein 48 (Homo sapiens, UniProt O94782+Q8TAF3)
Assay: In Vitro USP1  Inhibitory Activity
Procedure: Experimental Methods1) Preparation of 1× assay buffer: 1× assay buffer (modified Tris buffer) was prepared;2) Compound dilution: The compound was transferred to the assay plate by Echo.

Sequence of Ubiquitin carboxyl-terminal hydrolase 1/WD repeat-containing protein 48 (O94782 whole entry): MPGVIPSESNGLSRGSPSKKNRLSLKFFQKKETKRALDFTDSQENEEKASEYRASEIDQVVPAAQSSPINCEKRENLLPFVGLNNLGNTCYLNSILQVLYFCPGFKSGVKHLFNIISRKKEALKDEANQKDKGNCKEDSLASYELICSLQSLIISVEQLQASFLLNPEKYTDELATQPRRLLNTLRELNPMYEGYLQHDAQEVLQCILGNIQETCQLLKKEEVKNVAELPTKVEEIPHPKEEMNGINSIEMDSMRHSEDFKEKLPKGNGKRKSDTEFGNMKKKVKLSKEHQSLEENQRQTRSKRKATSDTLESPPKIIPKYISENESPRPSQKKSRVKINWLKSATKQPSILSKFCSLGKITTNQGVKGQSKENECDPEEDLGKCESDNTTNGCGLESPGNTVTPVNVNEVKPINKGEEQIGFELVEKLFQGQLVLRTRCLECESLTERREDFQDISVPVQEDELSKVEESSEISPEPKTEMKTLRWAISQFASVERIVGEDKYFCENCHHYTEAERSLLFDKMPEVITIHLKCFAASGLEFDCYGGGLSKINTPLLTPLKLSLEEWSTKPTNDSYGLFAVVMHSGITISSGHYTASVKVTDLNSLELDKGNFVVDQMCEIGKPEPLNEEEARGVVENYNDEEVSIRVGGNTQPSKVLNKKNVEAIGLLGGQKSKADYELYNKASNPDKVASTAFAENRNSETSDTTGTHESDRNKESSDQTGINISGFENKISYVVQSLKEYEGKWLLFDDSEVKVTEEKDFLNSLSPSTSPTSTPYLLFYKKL
Sequence of Ubiquitin carboxyl-terminal hydrolase 1/WD repeat-containing protein 48 (Q8TAF3 whole entry): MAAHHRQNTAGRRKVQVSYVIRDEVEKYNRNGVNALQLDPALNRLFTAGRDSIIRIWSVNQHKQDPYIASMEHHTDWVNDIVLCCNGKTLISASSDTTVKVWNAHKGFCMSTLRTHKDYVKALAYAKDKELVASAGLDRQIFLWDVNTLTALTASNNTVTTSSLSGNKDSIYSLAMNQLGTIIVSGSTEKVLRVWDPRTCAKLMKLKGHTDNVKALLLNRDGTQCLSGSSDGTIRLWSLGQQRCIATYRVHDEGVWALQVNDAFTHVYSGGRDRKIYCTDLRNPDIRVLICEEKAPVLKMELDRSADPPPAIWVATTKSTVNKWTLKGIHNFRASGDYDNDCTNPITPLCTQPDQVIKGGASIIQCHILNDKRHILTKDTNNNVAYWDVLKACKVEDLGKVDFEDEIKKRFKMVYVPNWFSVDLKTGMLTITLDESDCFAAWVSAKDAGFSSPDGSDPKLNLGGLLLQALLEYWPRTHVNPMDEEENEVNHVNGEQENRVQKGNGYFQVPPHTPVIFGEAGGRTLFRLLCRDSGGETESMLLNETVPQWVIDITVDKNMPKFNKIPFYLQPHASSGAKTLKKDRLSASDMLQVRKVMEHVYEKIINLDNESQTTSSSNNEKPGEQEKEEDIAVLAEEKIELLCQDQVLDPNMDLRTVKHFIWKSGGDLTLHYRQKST

Row | Compound | IC50 [nM]
1 | Cc1cc(C(F)(F)F)nn1-c1ccc(CNc2nc(-c3c(Cl)cnn3C(C)C)nc3ccoc23)cc1 [US20250289799, Example 168] | 1.2
2 | COc1cnc(-c2ccccc2C2CC2)nc1NCc1ccc(-c2nc(C(F)(F)F)cn2C)cc1 [US20250289799, Example 169] | 0.8
3 | COc1cnc(-c2ccccc2C2CC2)nc1NCc1ccc(-n2nc(C(F)(F)F)cc2C)cc1 [US20250289799, Example 170] | 2.9
4 | COc1cc(-c2nc(C(F)(F)F)cn2C)ccc1CNc1nc(-c2ccccc2C2CC2)ncc1OC [US20250289799, Example 171] | 2.3
5 | COc1cc(CNc2nc(-c3ccccc3C3CC3)ncc2OC)ccc1-c1nc(C(F)(F)F)cn1C [US20250289799, Example 172] | 12
6 | Cn1cc(C(F)(F)F)nc1-c1ccc(CNc2nc(-c3ccccc3C3CC3)nc3ccoc23)cc1 [US20250289799, Example 173] | 1
7 | Cc1cc(C(F)(F)F)nn1-c1ccc(CNc2nc(-c3ccccc3C3CC3)nc3ccoc23)cc1 [US20250289799, Example 174] | 5.1
8 | COc1cc(-c2nc(C(F)(F)F)cn2C)ccc1CNc1nc(-c2ccccc2C2CC2)nc2ccoc12 [US20250289799, Example 175] | 3.6
9 | COc1cc(CNc2nc(-c3ccccc3C3CC3)nc3ccoc23)ccc1-c1nc(C(F)(F)F)cn1C [US20250289799, Example 176] | 4
10 | COc1cnc(-c2c(OC)cnn2C(C)C)nc1N(C)CC1CCN(c2ccccn2)CC1 [US20250289799, Example 177] | 75
11 | COc1cnc(-c2c(OC)cnn2C(C)C)nc1NCc1ccc(-c2ccccn2)cc1 [US20250289799, Example 178] | 110
12 | COc1cnc(-c2c(OC)cnn2C(C)C)nc1NCC1CCN(c2nc(C(F)(F)F)cn2C)CC1 [US20250289799, Example 179] | 56
13 | COc1cnc(-c2c(OC)cnn2C(C)C)nc1NCc1ccc(-c2nc(C(F)(F)F)cn2C)cc1 [US20250289799, Example 180] | 15
14 | COc1cnn(C(C)C)c1-c1nc(NCc2ccc(-c3ccccn3)cc2)c2occc2n1 [US20250289799, Example 181] | 27
15 | COc1cnn(C(C)C)c1-c1nc(NCc2ccc(-n3nc(C(F)(F)F)cc3C)cc2)c2occc2n1 [US20250289799, Example 182] | 7.4
16 | COc1cnc(-c2c(OC)cnn2C2CC2)nc1NCc1ccc(-c2ccccn2)cc1 [US20250289799, Example 183] | 164
17 | COc1cnc(-c2c(OC)cnn2C2CC2)nc1NCC1CCN(c2nc(C(F)(F)F)cn2C)CC1 [US20250289799, Example 184] | 94
18 | COc1cnn(C2CC2)c1-c1ncc(OC(F)F)c(NCc2ccc(-c3nc(C(F)(F)F)cn3C)cc2)n1 [US20250289799, Example 185] | 9.8
19 | COc1cnc(-c2c(C)noc2C(C)C)nc1N(C)CC1CCN(c2ccccn2)CC1 [US20250289799, Example 186] | 66
20 | COc1cnc(-c2c(C)noc2C(C)C)nc1NCC1CCN(c2nc(C(F)(F)F)cn2C)CC1 [US20250289799, Example 187] | 23.5
21 | COc1cnc(-c2c(C)noc2C(C)C)nc1NCc1ccc(-c2nc(C(F)(F)F)cn2C)cc1 [US20250289799, Example 188] | 15
22 | Cc1noc(C(C)C)c1-c1nc(NCc2ccc(-c3ccccn3)cc2)c2occc2n1 [US20250289799, Example 189] | 16

Row | Compound | IC50 [nM]
23 | Cc1noc(C(C)C)c1-c1ncc(OC(F)F)c(NCc2ccc(-c3nc(C(F)(F)F)cn3C)cc2)n1 [US20250289799, Example 190] | 33
24 | COc1cnc(-c2c(Cl)cnn2C2CC2)nc1N(C)Cc1ccc(-c2nc(C(F)(F)F)cn2C)cc1 [US20250289799, Example 191] | 4.3
25 | COc1cnc(-c2c(Cl)cnn2C2CC2)nc1NCc1ccc(-c2nc(C(F)(F)F)cn2C)cc1 [US20250289799, Example 192] | 3.8
26 | COc1cnc(-c2cncnc2C2CC2)nc1N(C)Cc1ccc(-c2nc(C(F)(F)F)cn2C)cc1 [US20250289799, Example 193] | 87
27 | COc1cnc(-c2cncnc2C2CC2)nc1NCc1ccc(-c2nc(C(F)(F)F)cn2C)cc1 [US20250289799, Example 194] | 51
28 | COc1cnc(-c2cncnc2C2CC2)nc1NCc1ccc(-c2nc(C(F)F)cn2C)cc1 [US20250289799, Example 195] | 243
29 | Cn1cc(C(F)(F)F)nc1-c1ccc(CNc2nc(-c3cncnc3C3CC3)nc3ccoc23)cc1 [US20250289799, Example 196] | 12
30 | Cn1cc(C(F)F)nc1-c1ccc(CNc2nc(-c3cncnc3C3CC3)nc3ccoc23)cc1 [US20250289799, Example 197] | 133
31 | COc1cnc(-c2c(C)cnn2C2CC2)nc1N(C)Cc1ccc(-c2nc(C(F)(F)F)cn2C)cc1 [US20250289799, Example 198] | 3.2
32 | COc1cnc(-c2c(C)cnn2C2CC2)nc1NCc1ccc(-c2nc(C(F)(F)F)cn2C)cc1 [US20250289799, Example 199] | 5.6
33 | COc1cnc(-c2c(C)cnn2C(C)C)nc1N(C)Cc1ccc(-c2nc(C(F)(F)F)cn2C)cc1 [US20250289799, Example 200] | 2.8
34 | COc1cnc(-c2c(C)cnn2C(C)C)nc1N(C)Cc1ccc(-n2nc(C(F)(F)F)cc2C)cc1 [US20250289799, Example 201] | 12
35 | COc1cnc(-c2c(C)cnn2C(C)C)nc1NCc1ccc(-c2nc(C(F)(F)F)cn2C)cc1 [US20250289799, Example 202] | 3
36 | C#Cc1cnc(-c2c(C)cnn2C(C)C)nc1NCc1ccc(-c2nc(C(F)(F)F)cn2C)cc1 [US20250289799, Example 203] | 1.4
37 | COc1cnc(-c2c(OC)ncnc2C2CC2)nc1N(O)Cc1ccc(-c2nc(C(F)(F)F)cn2C)cc1 [US20250289799, Example 204] | 25
38 | COc1cnc(-c2c(C)cnn2C2CC2)nc1N(O)Cc1ccc(-c2nc(C(F)(F)F)cn2C)cc1 [US20250289799, Example 205] | 43
39 | COc1cnc(-c2c(OC)ncnc2C2CC2)nc1N(C#N)Cc1ccc(-c2nc(C(F)(F)F)cn2C)cc1 [US20250289799, Example 206] | 3.5
40 | COc1cnc(-c2c(OC)ncnc2C2CC2)nc1N(C)CC12C3C4C1C1C2C3C41c1nc(C(F)(F)F)cn1C (centres undefined) [US20250289799, Example 207] | 3.5
41 | COc1cnc(-c2c(Cl)cnn2C(C)C)nc1NCC12CCC(c3nc(C(F)(F)F)cn3C)(CC1)OC2 [US20250289799, Example 209] | 1.6
42 | COc1cnc(-c2c(Cl)cnn2C(C)C)nc1N(C)CC12CCC(c3nc(C(F)(F)F)cn3C)(CC1)OC2 [US20250289799, Example 211] | 6.1
43 | COc1cnc(-c2c(OC)ncnc2C2CC2)nc1N(C)CC12CCC(c3nc(C(F)(F)F)cn3C)(CC1)OC2 [US20250289799, Example 212] | 19
44 | COc1cnc(-c2c(OC)ncnc2C2CC2)nc1NCC12C3C4C1C1C2C3C41c1nc(C(F)(F)F)cn1C1CC1 (centres undefined) [US20250289799, Example 216] | 1.4
